# Assay results from ChEMBL document CHEMBL1201862, “PubChem BioAssay data set” (2004).
#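 Assay format: 96-well plates, 48-hour exposure. The concentration for 50% growth inhibition is given as GI50.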 Calls of active or inactive are those of the source. No stated cut-off is given here; in the data, active = GI50 up to about 1.1 µM and inactive = higher.
# Tests used:
# Assay in all cases: NCI tumour cell line growth inhibition, 48 h
# [1] = tested on: 786-0
# [2] = tested on: RXF 393
# [3] = tested on: HCC 2998
# [4] = tested on: MCF7
# [5] = tested on: TK-10
# [6] = tested on: NCI-H23
# [7] = tested on: MDA-N
# [8] = tested on: A549
# [9] = tested on: LOX IMVI
# [10] = tested on: HT-29
# [11] = tested on: K562
# [12] = tested on: SNB-75
# [13] = tested on: KM12
# [14] = tested on: UO-31
# [15] = tested on: M14
# [16] = tested on: U-251
# [17] = tested on: HCT-116
# [18] = tested on: EKVX
# [19] = tested on: DU-145
# [20] = tested on: SF-268
# [21] = tested on: NCI/ADR-RES
# [22] = tested on: COLO 205
# [23] = tested on: MDA-MB-231
# [24] = tested on: PC-3
# [25] = tested on: MOLT-4
# [26] = tested on: SK-OV-3
# [27] = tested on: IGROV-1
# [28] = tested on: UACC-62
# [29] = tested on: CAKI-1
# [30] = tested on: SN12C
# [31] = tested on: SNB-19
# [32] = tested on: HCT-15
# [33] = tested on: Malme-3M
# [34] = tested on: MDA-MB-435
# [35] = tested on: SK-MEL-2
# [36] = tested on: OVCAR-8
# [37] = tested on: HOP-62
# [38] = tested on: SK-MEL-28
# [39] = tested on: CCRF-CEM
# [40] = tested on: OVCAR-4
# [41] = tested on: T47D
# [42] = tested on: Hs-578T
# [43] = tested on: BT-549
# [44] = tested on: SF-539
# [45] = tested on: NCI-H226
# [46] = tested on: NCI-H522
# [47] = tested on: SK-MEL-5
# [48] = tested on: OVCAR-3
# [49] = tested on: SW-620
# [50] = tested on: OVCAR-5
# [51] = tested on: SF-295
# [52] = tested on: RPMI-8226
# [53] = tested on: SR
# [54] = tested on: A498
# [55] = tested on: ACHN
# [56] = tested on: HOP-92
# [57] = tested on: NCI-H460
# [58] = tested on: HL-60
# [59] = tested on: UACC-257
smiles,measurement,setting,value
COc1ccc(/C=C2\N=C(SC)NC2=O)cc1,GI50,[1],> 100000 nM (inactive)
same,GI50,[2],67300 nM (inactive)
same,GI50,[3],> 100000 nM (inactive)
same,GI50,[4],70800 nM (inactive)
same,GI50,[5],86100 nM (inactive)
same,GI50,[6],67000 nM (inactive)
same,GI50,[7],83600 nM (inactive)
same,GI50,[8],> 100000 nM (inactive)
same,GI50,[9],> 100000 nM (inactive)
same,GI50,[10],> 100000 nM (inactive)
same,GI50,[11],> 10000 nM (inactive)
same,GI50,[12],27200 nM (inactive)
same,GI50,[13],54600 nM (inactive)
same,GI50,[14],21200 nM (inactive)
same,GI50,[15],> 100000 nM (inactive)
same,GI50,[16],90600 nM (inactive)
same,GI50,[17],> 100000 nM (inactive)
same,GI50,[18],30400 nM (inactive)
same,GI50,[19],53800 nM (inactive)
same,GI50,[20],58600 nM (inactive)
same,GI50,[21],> 100000 nM (inactive)
same,GI50,[22],98600 nM (inactive)
same,GI50,[23],59600 nM (inactive)
same,GI50,[24],67100 nM (inactive)
same,GI50,[25],46500 nM (inactive)
same,GI50,[26],> 100000 nM (inactive)
same,GI50,[27],56500 nM (inactive)
same,GI50,[28],70300 nM (inactive)
same,GI50,[29],56000 nM (inactive)
same,GI50,[30],> 100000 nM (inactive)
same,GI50,[31],38500 nM (inactive)
same,GI50,[32],89700 nM
same,GI50,[33],> 100000 nM (inactive)
same,GI50,[34],91800 nM (inactive)
same,GI50,[35],> 100000 nM (inactive)
same,GI50,[36],> 100000 nM (inactive)
same,GI50,[37],> 100000 nM (inactive)
same,GI50,[38],> 100000 nM (inactive)
same,GI50,[39],81800 nM (inactive)
same,GI50,[40],71100 nM (inactive)
same,GI50,[41],27800 nM (inactive)
same,GI50,[42],64600 nM (inactive)
same,GI50,[43],42800 nM (inactive)
same,GI50,[44],80700 nM (inactive)
same,GI50,[45],> 100000 nM (inactive)
same,GI50,[46],69000 nM (inactive)
same,GI50,[47],53600 nM (inactive)
same,GI50,[48],> 100000 nM (inactive)
same,GI50,[49],> 100000 nM (inactive)
same,GI50,[50],> 100000 nM (inactive)
same,GI50,[51],> 100000 nM (inactive)
same,GI50,[52],61800 nM (inactive)
CN(C)c1ccc(/C=c2/c3ccccc3n3c2cc(/C=C/c2ccccc2)[n+]3C)cc1,GI50,[1],81.5 nM (active)
same,GI50,[2],53.8 nM (active)
same,GI50,[3],121 nM (active)
same,GI50,[4],147 nM (active)
same,GI50,[5],393 nM (active)
same,GI50,[6],78.3 nM (active)
same,GI50,[7],249 nM (active)
same,GI50,[8],51.2 nM (active)
same,GI50,[9],120 nM (active)
same,GI50,[10],142 nM (active)
same,GI50,[53],36.7 nM (active)
same,GI50,[11],95.1 nM (active)
same,GI50,[12],33 nM (active)
same,GI50,[13],167 nM (active)
same,GI50,[14],344 nM (active)
same,GI50,[15],218 nM (active)
same,GI50,[16],39.9 nM (active)
same,GI50,[17],82.4 nM (active)
same,GI50,[18],265 nM (active)
same,GI50,[19],100 nM (active)
same,GI50,[20],114 nM (active)
same,GI50,[54],266 nM (active)
same,GI50,[22],73 nM (active)
same,GI50,[23],261 nM (active)
same,GI50,[24],93.3 nM (active)
same,GI50,[25],74.3 nM (active)
same,GI50,[26],296 nM (active)
same,GI50,[27],145 nM (active)
same,GI50,[28],281 nM (active)
same,GI50,[29],1280 nM (inactive)
same,GI50,[30],84.1 nM (active)
same,GI50,[31],217 nM (active)
same,GI50,[32],881 nM
same,GI50,[33],233 nM (active)
same,GI50,[34],135 nM (active)
same,GI50,[35],282 nM (active)
same,GI50,[55],255 nM (active)
same,GI50,[36],77.3 nM (active)
same,GI50,[37],89.3 nM (active)
same,GI50,[56],35.8 nM (active)
same,GI50,[57],185 nM (active)
same,GI50,[38],269 nM (active)
same,GI50,[39],20.6 nM (active)
same,GI50,[40],286 nM (active)
same,GI50,[41],16.4 nM (active)
same,GI50,[42],28.7 nM (active)
same,GI50,[43],80 nM (active)
same,GI50,[44],38 nM (active)
same,GI50,[45],110 nM (active)
same,GI50,[46],108 nM (active)
same,GI50,[47],144 nM (active)
same,GI50,[58],92.7 nM (active)
same,GI50,[48],141 nM (active)
same,GI50,[49],91.6 nM (active)
same,GI50,[50],502 nM (active)
same,GI50,[51],225 nM (active)
same,GI50,[59],339 nM (active)
same,GI50,[52],20.8 nM (active)
